# Reference: PubChem BioAssay (NCI)
#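 Tested at 5 concentrations; 48 h exposure; 96-well plates; endpoints linearly interpolated, else capped at highest concentration. GI50: concentration for 50% inhibition of growth. TGI: total growth inhibition.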
# Tested on: OVCAR-5 ovarian
# Experiment: DTP human tumour cell line panel, 48 h
row,SMILES,TGI [µM]
1,Cc1c(O)c(O)cc[n+]1C1OC(CO)C(O)C1O (configuration not stated),> 100
2,C=C1C(=O)O[C@@H]2C(=O)[C@@H](C)CCC/C(C)=C/CC[C@@]3(C)O[C@@H]3C[C@@H]12,> 100
3,O=C(NC(=O)c1ccccc1[N+](=O)[O-])Nc1ccc(Oc2ncc(Br)cn2)c(Cl)c1,0.0522
4,ClCCN1CCC2(CC1)SSC1(CCN(CCCl)CC1)S2,72
5,C1CN(c2nc3c(nnc4nc(N5CCOCC5)sc43)s2)CCO1,> 100
6,CCCCC#C[I+]c1ccccc1,28
7,Nc1nc(SCCc2ccccc2)c2[nH]cnc2n1,> 100
8,Cc1ccc(-c2n[nH]c(=O)n2N2C(=O)c3ccccc3C2=O)cc1,> 100
9,COc1ccc(C2CC(c3c(O)ccc4ccccc34)=NN2C(C)=O)cc1OC (configuration not stated),> 100
10,COc1ccc2cc(NC(=O)N/N=C\c3ccc([N+](=O)[O-])cc3)ccc2c1,> 100
11,C[C@@H]1CC[C@]2(C(=O)O)CC[C@]3(C)C(=CC[C@@H]4[C@@]5(C)CC[C@H](O)C(C)(C)[C@@H]5CC[C@]43C)[C@@H]2[C@]1(C)O,31.5
12,O=C1CCCSC(=O)N1Cc1ccccc1,> 100
13,CC(C)(C)OC(=O)N[C@H]1CCN(C2CCCCC2)C1=O,> 100
14,CCCN(C(=O)c1ccccc1)C(C#N)c1ccc(C(C#N)N(CCC)C(=O)c2ccccc2)cc1 (configuration not stated),> 100
15,N#Cc1c(-c2ccccc2)/c(=C\Nc2cccc(C(F)(F)F)c2)c(=O)n2c1nc1ccccc12,> 100
16,S=C1Nc2ccccc2SC1c1ccccc1 (configuration not stated),> 100
17,c1ccc(N=c2sc3ccccc3nc2Nc2ccccc2)cc1,> 100
18,O=C1/C(=C/c2ccccc2)N=C2Sc3c(nc[nH]c3=O)N12,> 100
19,C=CC1(C)CCC2C(=CCC3C2(C)CC(O)C(O)C3(C)COC2OC(C(=O)O)C(O)C(O)C2O)C1 (configuration not stated) (tested in a mixture with another compound),> 100
20,O=C(CCN1CCCCC1)C(=Cc1ccccc1)C(=O)CCN1CCCCC1,> 100
21,O=c1ccc(-c2ccccc2)n[nH]1,> 100
22,CC(C)=CCc1c2c(c3occ(-c4ccc(O)cc4)c(=O)c3c1O)CC(C(C)(C)O)O2 (configuration not stated),33.8
23,COc1ccc(-c2c(C#N)c(-c3ccc(C)cc3)n(NS(=O)(=O)c3ccc(C)cc3)c(=O)c2C#N)cc1,> 100
24,O=[N+]([O-])c1ccc2c(c1)c(OCc1ccccc1)nn2Cc1ccccc1,> 100
25,C#CCNC(CS)C(=O)O (configuration not stated),> 100
26,O=C1CCCc2cc3c(cc21)CC1(Cc2ccccc2C1)C3,> 100
27,Cc1ccc(Cl)c2[nH]c(-c3ccccc3)cc(=O)c12,> 100
28,CCOC(=O)/C=C/CC(C)(C)CCOC(C)=O,> 10

# Tested on: KM12 colon
# Experiment: DTP human tumour cell line panel, 48 h
SMILES,TGI [µM],GI50 [µM]
CCOC(=O)c1cn2c(n1)sc1cccc(C)c12,> 100,
O=C1CSC(c2ccc(Cl)cc2)N1c1ccc(Oc2ccc(Cl)cc2)c(Cl)c1 (configuration not stated),29.4,
CCC(C(=O)O)c1ccc(OC)cc1 (configuration not stated),> 100,
Nc1nc(Cl)cc(NCC2(CO)CC(=O)C2)n1,> 100,
CO/C(=N\N=C\c1ccc(C(F)(F)F)cc1)c1ccncc1,> 10,
Cc1c(O)c(O)cc[n+]1C1OC(CO)C(O)C1O (configuration not stated),> 100,
C=C1C(=O)O[C@@H]2C(=O)[C@@H](C)CCC/C(C)=C/CC[C@@]3(C)O[C@@H]3C[C@@H]12,> 100,
CC1CCC(n2c3cnccc3c3cnc(Nc4ccc5c(n4)CCN(C(=O)CO)C5)nc32)CC1 (configuration not stated),> 100,0.0812
O=C(NC(=O)c1ccccc1[N+](=O)[O-])Nc1ccc(Oc2ncc(Br)cn2)c(Cl)c1,,< 0.0196
COc1ccc(-c2cc(O)c3nc4ccccc4n3c2)cc1,> 100,
ClCCN1CCC2(CC1)SSC1(CCN(CCCl)CC1)S2,> 100,
C1CN(c2nc3c(nnc4nc(N5CCOCC5)sc43)s2)CCO1,> 100,
C1=C2/CC[C@H](Sc3ccccc3)C2C2(CCCCC/1)OCCO2 (some centres not stated),94,
CCCCC#C[I+]c1ccccc1,27.7,
Nc1nc(SCCc2ccccc2)c2[nH]cnc2n1,> 100,
Cc1ccc(-c2n[nH]c(=O)n2N2C(=O)c3ccccc3C2=O)cc1,> 100,
COc1ccc(C2CC(c3c(O)ccc4ccccc34)=NN2C(C)=O)cc1OC (configuration not stated),> 100,
COc1ccc2cc(NC(=O)N/N=C\c3ccc([N+](=O)[O-])cc3)ccc2c1,> 100,
C[C@@H]1CC[C@]2(C(=O)O)CC[C@]3(C)C(=CC[C@@H]4[C@@]5(C)CC[C@H](O)C(C)(C)[C@@H]5CC[C@]43C)[C@@H]2[C@]1(C)O,26.7,

SMILES,TGI [µM],GI50 [µM]
O=C1CCCSC(=O)N1Cc1ccccc1,> 100,
CCCN(C(=O)c1ccccc1)C(C#N)c1ccc(C(C#N)N(CCC)C(=O)c2ccccc2)cc1 (configuration not stated),> 100,
N#Cc1c(-c2ccccc2)/c(=C\Nc2cccc(C(F)(F)F)c2)c(=O)n2c1nc1ccccc12,53.4,
S=C1Nc2ccccc2SC1c1ccccc1 (configuration not stated),> 100,
c1ccc(N=c2sc3ccccc3nc2Nc2ccccc2)cc1,> 100,
O=C1/C(=C/c2ccccc2)N=C2Sc3c(nc[nH]c3=O)N12,> 100,
C=CC1(C)CCC2C(=CCC3C2(C)CC(O)C(O)C3(C)COC2OC(C(=O)O)C(O)C(O)C2O)C1 (configuration not stated) (tested in a mixture with another compound),> 100,
N#CC1(C#N)N[C@@H](c2ccsc2)[C@H]2C(=O)N(c3ccccc3)C(=O)[C@H]21,> 100,
O=C(CCN1CCCCC1)C(=Cc1ccccc1)C(=O)CCN1CCCCC1,> 100,
O=c1ccc(-c2ccccc2)n[nH]1,> 100,
CC(C)=CCc1c2c(c3occ(-c4ccc(O)cc4)c(=O)c3c1O)CC(C(C)(C)O)O2 (configuration not stated),35.5,
COc1ccc(-c2c(C#N)c(-c3ccc(C)cc3)n(NS(=O)(=O)c3ccc(C)cc3)c(=O)c2C#N)cc1,> 100,
O=[N+]([O-])c1ccc2c(c1)c(OCc1ccccc1)nn2Cc1ccccc1,> 100,
C#CCNC(CS)C(=O)O (configuration not stated),> 100,
O=C1CCCc2cc3c(cc21)CC1(Cc2ccccc2C1)C3,13.7,
Cc1ccc(Cl)c2[nH]c(-c3ccccc3)cc(=O)c12,> 100,
COc1ccc2c(c1)/C(=C/CCN(C)C)c1ccccc1S2,> 100,
NS(=O)(=O)c1ccc2c(c1)OCCOCCOCCOCCO2,> 100,
CCOC(=O)/C=C/CC(C)(C)CCOC(C)=O,> 10,

# Tested on: NCI-H460 lung
# Experiment: DTP human tumour cell line panel, 48 h
SMILES,TGI [µM],GI50 [µM]
CCOC(=O)c1cn2c(n1)sc1cccc(C)c12,> 100,
O=C1CSC(c2ccc(Cl)cc2)N1c1ccc(Oc2ccc(Cl)cc2)c(Cl)c1 (configuration not stated),35.5,
COC(CCC[N+](C)(C)C)CC[N+](C)(C)C (configuration not stated),> 100,
CCC(C(=O)O)c1ccc(OC)cc1 (configuration not stated),> 100,
Nc1nc(Cl)cc(NCC2(CO)CC(=O)C2)n1,> 100,
CO/C(=N\N=C\c1ccc(C(F)(F)F)cc1)c1ccncc1,> 10,
Cc1c(O)c(O)cc[n+]1C1OC(CO)C(O)C1O (configuration not stated),> 100,
CC1CCC(n2c3cnccc3c3cnc(Nc4ccc5c(n4)CCN(C(=O)CO)C5)nc32)CC1 (configuration not stated),> 100,0.422
O=C(NC(=O)c1ccccc1[N+](=O)[O-])Nc1ccc(Oc2ncc(Br)cn2)c(Cl)c1,,< 0.0197
COc1ccc(-c2cc(O)c3nc4ccccc4n3c2)cc1,> 100,
ClCCN1CCC2(CC1)SSC1(CCN(CCCl)CC1)S2,> 100,
C1=C2/CC[C@H](Sc3ccccc3)C2C2(CCCCC/1)OCCO2 (some centres not stated),73.9,
CCCCC#C[I+]c1ccccc1,26.9,
Nc1nc(SCCc2ccccc2)c2[nH]cnc2n1,> 100,
Cc1ccc(-c2n[nH]c(=O)n2N2C(=O)c3ccccc3C2=O)cc1,> 100,
COc1ccc(C2CC(c3c(O)ccc4ccccc34)=NN2C(C)=O)cc1OC (configuration not stated),93.5,
COc1ccc2cc(NC(=O)N/N=C\c3ccc([N+](=O)[O-])cc3)ccc2c1,> 100,

SMILES,TGI [µM],GI50 [µM]
C[C@@H]1CC[C@]2(C(=O)O)CC[C@]3(C)C(=CC[C@@H]4[C@@]5(C)CC[C@H](O)C(C)(C)[C@@H]5CC[C@]43C)[C@@H]2[C@]1(C)O,17.3,
O=C1CCCSC(=O)N1Cc1ccccc1,> 100,
CC(C)(C)OC(=O)N[C@H]1CCN(C2CCCCC2)C1=O,> 100,
N#Cc1c(-c2ccccc2)/c(=C\Nc2cccc(C(F)(F)F)c2)c(=O)n2c1nc1ccccc12,> 100,
S=C1Nc2ccccc2SC1c1ccccc1 (configuration not stated),> 100,
c1ccc(N=c2sc3ccccc3nc2Nc2ccccc2)cc1,> 100,
C=CC1(C)CCC2C(=CCC3C2(C)CC(O)C(O)C3(C)COC2OC(C(=O)O)C(O)C(O)C2O)C1 (configuration not stated) (tested in a mixture with another compound),> 100,
O=C(CCN1CCCCC1)C(=Cc1ccccc1)C(=O)CCN1CCCCC1,> 100,
O=c1ccc(-c2ccccc2)n[nH]1,> 100,
CC(C)=CCc1c2c(c3occ(-c4ccc(O)cc4)c(=O)c3c1O)CC(C(C)(C)O)O2 (configuration not stated),26,
COc1ccc(-c2c(C#N)c(-c3ccc(C)cc3)n(NS(=O)(=O)c3ccc(C)cc3)c(=O)c2C#N)cc1,> 100,
O=[N+]([O-])c1ccc2c(c1)c(OCc1ccccc1)nn2Cc1ccccc1,> 100,
C#CCNC(CS)C(=O)O (configuration not stated),> 100,
Cc1ccc(Cl)c2[nH]c(-c3ccccc3)cc(=O)c12,> 100,
COc1ccc2c(c1)/C(=C/CCN(C)C)c1ccccc1S2,> 100,
NS(=O)(=O)c1ccc2c(c1)OCCOCCOCCOCCO2,> 100,
CCOC(=O)/C=C/CC(C)(C)CCOC(C)=O,> 10,

# Tested on: M14 melanoma
# Experiment: DTP human tumour cell line panel, 48 h
row,SMILES,TGI [µM]
1,CCOC(=O)c1cn2c(n1)sc1cccc(C)c12,> 100
2,O=C1CSC(c2ccc(Cl)cc2)N1c1ccc(Oc2ccc(Cl)cc2)c(Cl)c1 (configuration not stated),33.3
3,COC(CCC[N+](C)(C)C)CC[N+](C)(C)C (configuration not stated),> 100
4,CCC(C(=O)O)c1ccc(OC)cc1 (configuration not stated),> 100
5,CO/C(=N\N=C\c1ccc(C(F)(F)F)cc1)c1ccncc1,> 10
